From PubChem BioAssay (NCI)
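96-well plates; 48 h exposure; 5 concentrations. Endpoints by linear interpolation between flanking doses. Not reached: highest tested concentration assigned. The concentration for 50% growth inhibition is given as GI50. At the TGI there is no net growth.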 Where a SMILES comes first, the peptide text is derived from it. Bridges are numbered along the chain shown (N, C = ends). Roman numbers before positions name the chains, in order. [ ]: non-standard residue; d: D form. The star is where a group is joined. Heptadecanoyl = CCCCCCCCCCCCCCCCC(=O)*; Phg = N[CH](C(=O)O)c1ccccc1

Assays:
Test in all cases: NCI-60 cell line screen, 48 h
ACHN renal = test system: ACHN renal
DU-145 prostate = test system: DU-145 prostate
HL-60(TB) leukemia = test system: HL-60(TB) leukemia
HS 578T breast = test system: HS 578T breast
IGROV1 ovarian = test system: IGROV1 ovarian
MALME-3M melanoma = test system: MALME-3M melanoma
NCI-H522 lung = test system: NCI-H522 lung
RXF 393 renal = test system: RXF 393 renal
SF-268 CNS = test system: SF-268 CNS
UACC-257 melanoma = test system: UACC-257 melanoma
UACC-62 melanoma = test system: UACC-62 melanoma

Row | SMILES | TGI (ACHN renal) [µM] | TGI (DU-145 prostate) [µM] | TGI (HL-60(TB) leukemia) [µM] | TGI (HS 578T breast) [µM] | TGI (IGROV1 ovarian) [µM] | TGI (MALME-3M melanoma) [µM] | TGI (NCI-H522 lung) [µM] | TGI (RXF 393 renal) [µM] | TGI (SF-268 CNS) [µM] | TGI (UACC-257 melanoma) [µM] | TGI (UACC-62 melanoma) [µM] | GI50 (DU-145 prostate) [µM] | GI50 (HL-60(TB) leukemia) [µM] | GI50 (HS 578T breast) [µM] | GI50 (IGROV1 ovarian) [µM] | GI50 (NCI-H522 lung) [µM] | GI50 (RXF 393 renal) [µM] | GI50 (SF-268 CNS) [µM] | GI50 (UACC-257 melanoma) [µM]
1 | CC(=O)OCC1OC(OC2CC3C(C)(C)C(=O)CC[C@]3(C)C3CC[C@]45C[C@]4(CCC5[C@@H](C)CC(O)C(O)C(C)(C)O)[C@]23C)C(O)C(O)C1O (some centres undefined) | 30 | 30.9 | 5.05 | 24.5 | 23.2 | 27.5 | 22.7 | 21.9 | 21.8 | 23.6 | 22.5 |  |  |  |  |  |  |  | 
2 | CN(C)C1COC2Cc3ccccc3C1O2 (centres undefined) | > 100 | > 100 | > 100 | > 100 | > 100 | > 100 | > 100 | > 100 | > 100 | > 100 | > 100 |  |  |  |  |  |  |  | 
3 | O=C(NO)c1ccc(OCc2ccccc2)cc1 | 88.8 | 68.9 | > 100 | > 100 | > 100 |  | 51.5 | > 100 | > 100 | > 100 | 36.5 |  |  |  |  |  |  |  | 
4 | CC[C@@H]1C[C@@H](O)[C@@H]2[C@H](O)[C@H](O)CN2C1 | > 100 | > 100 | > 100 | > 100 | > 100 | > 100 | > 100 |  | > 100 | > 100 | > 100 |  |  |  |  |  |  |  | 
5 | O=C1c2ccc3ccccc3c2CCC1N1CCCCC1 (centres undefined) | 31.5 | 30.3 | 49.6 | 44.9 | 29.5 | 31.4 | 35.7 | 46.5 | 39.7 | 35 | 30.3 |  |  |  |  |  |  |  | 
6 | CN(C)CC1CN(C(=O)Nc2ccccc2)C(=N)O1 (centres undefined) | > 100 | > 100 | > 100 | > 100 | > 100 | > 100 | > 100 | > 100 | > 100 | > 100 | > 100 |  |  |  |  |  |  |  | 
7 | Cc1c(C)c(C)c(CSC(=N)N)c(C)c1C | 30.1 | 31.6 | 27.6 | 36.4 | > 100 | 32.9 | 33 | 33.2 | 36.2 | 27.3 | 24.2 |  |  |  |  |  |  |  | 
8 | COC(=O)c1cc(/C=C2\Cc3cc4c(cc3C2=O)CCC4)cc2c1CCC2 | > 100 | > 100 | > 100 | > 100 | > 100 | > 100 | > 100 |  | > 100 | > 100 | > 100 |  |  |  |  |  |  |  | 
9 | COc1cc(OC)nc(NC(=O)NS(=O)(=O)c2cccc3ncn(C)c(=O)c23)n1 | > 100 | > 100 | > 100 | > 100 | > 100 | > 100 | > 100 | > 100 | > 100 | > 100 | > 100 |  |  |  |  |  |  |  | 
10 | CC1(C)OC([C@H](O)CO)C([C@H]2NCCS2)O1 (some centres undefined) | > 100 | > 100 | > 100 | > 100 | > 100 | > 100 | > 100 | > 100 | > 100 | > 100 | > 100 |  |  |  |  |  |  |  | 
11 | Cc1cc(-c2ccc(Cl)cc2)c(C#N)c(=S)n1C1OC(CO)C(O)C(O)C1O (centres undefined) | > 100 | > 100 | > 100 | > 100 | > 100 | > 100 | > 100 | > 100 | > 100 | > 100 | > 100 |  |  |  |  |  |  |  | 
12 | CC1CC(=O)NC2CC1C2(C)C (centres undefined) | > 100 | > 100 | > 100 | > 100 | > 100 | > 100 | > 100 | > 100 | > 100 | > 100 | > 100 |  |  |  |  |  |  |  | 
13 | CCCCCCCCCCCCCCCCC(=O)N1CCCC1C(=O)NCC(=O)NC(C(=O)N1CCCC1C(=O)NC(CO)C(=O)NC(Cc1ccc(O)cc1)C(=O)NC(CCCCNC(=O)C1CCCN1C(=O)C(CCCCN)NC(=O)C(CCCCN)NC(=O)C(CCCCN)NC(=O)C(CCCNC(=N)N)NC(=O)C(CCCCN)NC(=O)C(N)C(C)C)C(=O)NC(CC(C)C)C(=O)NC(CCCNC(=N)N)C(=O)N1CCCC1C(=O)NCC(N)=O)c1ccccc1 (centres undefined) (I: Heptadecanoyl-PG[Phg]PSYKLRPG-NH2 / II: H-VKRKKKP; amide I:7-II:C; configuration not given here) |  | 61.5 | > 100 | > 100 | 75.7 |  | 85.9 | > 100 | > 100 | 62.9 |  | 24.6 | 21.3 | > 100 | 24.8 | 25.5 | 36.8 | 15 | 12.2
14 | O=C1/C(=C/c2ccc(O)cc2)CCc2ccccc21 | 69.5 | 64.9 | 36.7 | 94.3 | > 76 | 42.9 | 5.61 | 35.1 | 37.6 | 35.8 | 46.2 |  |  |  |  |  |  |  | 
15 | CC1(C)CC[C@]2(C(=O)O)CC[C@]3(C)C(=CC[C@@H]4[C@@]5(C)CC[C@@H]6OC(C)(C)OC[C@@]6(C)[C@@H]5CC[C@]43C)[C@H]2C1 | 15.7 | 31.9 | 32.9 |  | 30.2 | 25.6 | 29 |  | 36.5 | 31.8 | 25.4 |  |  |  |  |  |  |  | 
16 | O=C(O)CCCC#CCCCC(=O)O | > 100 | > 100 |  | > 100 | > 100 | > 100 | > 100 | > 100 | > 100 | > 100 | > 100 |  |  |  |  |  |  |  | 
17 | CN(C)C(=S)SCc1ccccc1 |  | > 100 | > 100 | > 100 | > 100 | > 100 | > 100 | > 100 | > 100 | > 100 | > 100 |  |  |  |  |  |  |  | 
18 | CC1OC2OC3C(OCC(O)C3O)OC(=O)[C@]34CCC(C)(C)CC3C3=CCC5[C@@]6(C)C[C@H](O)[C@H](OC7OC(CO)C(O)C(O)C7OC7OC(COC(=O)CC(C)(O)CC(=O)OC1C(O)C2O)C(O)C(O)C7O)[C@@](C)(CO)C6CC[C@@]5(C)[C@]3(C)CC4 (some centres undefined) | 2.52 | 3.02 | 2.87 | 3.54 | 2.54 |  | 3.08 |  | 2.97 | 2.64 | 2.81 |  |  |  |  |  |  |  | 
